{"source": "patent EP0460488B1", "about": "“Sulfur-containing heterocyclic compounds” (Takeda Chemical Industries, Ltd., priority 1990, dated 1991)", "data": [{"tested_on": "bone resorption", "assay": "Study on bone resorption inhibition: 45Ca release from cultured rat fetal bones (method of Raisz)", "assay_type": "cell-based, Sprague-Dawley rat", "details": "description for DK (own example numbering); rat fetal bone culture, 2 days with test compound; mean of 5 bones; test concentration not given", "method": "(§1) Bone resorption inhibitory activity was determined according to the method of Raisz [Journal of Clinical Investigation (J. Clin. Invest.) 44, 103-116 (1965)].\n(§2) That is, a Sprague-Dawley rat at day 19 of pregnancy was subcutaneously dosed with 50 µCi of 45Ca (a radioisotope of calcium, in CaCl2). On the next day, the animal was laparotomized and the fetuses were removed aseptically. The right and left […] (radii and ulnae) of each rat fetus were dissected from the body under the dissection microscope. The connective tissue and cartilages were removed as far as possible to prepare bone culture specimens. Each piece of bone was incubated in 0.6 ml of BGJb medium (Fitton-Jackson modification [the tradename owned by GIBCO Laboratories, U.S.A.]) containing 2 mg/ml of bovine serum albumin at 37°C for 24 hours. Then, incubation was carried out for additional two days in the above-mentioned medium. The radioactivities of 45Ca in the culture medium and bone were determined and the ratio (%) of 45Ca released from the bone to the medium was calculated according to the following formula. A =(B)/(B + C)x 100 [formula] A = ratio (%) of ^45Ca released from the bone to the medium B = ^45Ca count in the medium C = ^45Ca count in the bone\n(§3) The bones from the fetuses of the same litter were similarly incubated without addition of the test compound for two days and served as controls.\n(§4) The values for 5 bones per group were expressed in mean. The ratio (%) of this value for the treatment group to the control value was determined.\nas §2, with “of ^45Ca” for “of 45Ca”", "values": [{"molecule": "COc1cc2c(cc1OC)C(=O)CSC(C(=O)Nc1nc(-c3ccccc3)cs1)C2", "note": "(centres unmarked) [compound 25]", "45Ca release (% to control)": "69 % to control"}, {"molecule": "O=C1CSC(C(=O)Nc2ccc(Cl)cc2)Cc2ccc(Cl)cc21", "note": "(centres unmarked) [compound 26]", "45Ca release (% to control)": "68 % to control"}, {"molecule": "Cc1ccc2c(c1)C(=O)CSC(C(=O)Nc1ccc(Cl)cc1)C2", "note": "(centres unmarked) [compound 28]", "45Ca release (% to control)": "61 % to control"}, {"molecule": "methyl trans-4,7-dimethyl-5-oxo-1,2,4,5-tetrahydro-3-benzothiepine-2-carboxylate [Reference Example 32]", "45Ca release (% to control)": "63 % to control"}]}, {"tested_on": "bone resorption", "assay": "Study on bone resorption inhibition: 45Ca release from cultured rat fetal bones (method of Raisz)", "assay_type": "cell-based, Sprague-Dawley rat", "details": "rat fetal bone culture, 2 days with test compound; mean of 5 bones; ratio of treatment group to control; test concentration not given", "method": "as §1, §2, §3, §4\nas §2, with “of ^45Ca” for “of 45Ca”", "values": [{"molecule": "COc1cc2c(cc1OC)C(=O)CSC(C(=O)Nc1nc(-c3ccccc3)cs1)C2", "note": "(centres unmarked) [Example 47]", "^45Ca release (% to control)": "69 % to control"}, {"molecule": "O=C1CSC(C(=O)Nc2ccc(Cl)cc2)Cc2ccc(Cl)cc21", "note": "(centres unmarked) [Example 48]", "^45Ca release (% to control)": "68 % to control"}, {"molecule": "Cc1ccc2c(c1)C(=O)CSC(C(=O)Nc1ccc(Cl)cc1)C2", "note": "(centres unmarked) [Example 50]", "^45Ca release (% to control)": "61 % to control"}, {"molecule": "Cc1ccc2c(c1)C(=O)CSC(C(=O)N(C)Cc1ccccc1)C2", "note": "(centres unmarked) [Example 54]", "^45Ca release (% to control)": "63 % to control"}]}]}
